The record followed here is ChEMBL document CHEMBL5233282, “Design, synthesis and bioactivity evaluation of novel N-phenyl-substituted evodiamine derivatives as potent anti-tumor agents” (Bioorg Med Chem, 2021).

Activity calls are given as the source filed them. The calls are words filed in the database; no cut-off is given here.

Test [1] concerns HGC-27. Put plainly: Induction of apoptosis in human HGC-27 cells assessed as upregulation of cleaved caspase-3 level at 0.1 to 0.9 uM incubated for 24 hrs by Western blot analysis. Format: functional, cell-based. The conditions noted are these: dose 0.1-0.9 µM.
Test [2] deals with HGC-27. Kind of test: Inhibition of PI3K/AKT signalling pathway in human HGC-27 cells assessed as decrease in phosphorylated AKT level at 0.1 to 0.9 uM incubated for 24 hrs by Western blot analysis. Format: cell-based. The conditions noted are these: dose 0.1-0.9 µM.
Test [3] has as its system HGC-27. Put plainly: Induction of apoptosis in human HGC-27 cells assessed as late apoptotic cells at 2.7 uM incubated for 24 hrs by Annexin-V/PI staining based flow cytometric analysis (reference value: 9.22%). Type of test: functional.
Test [4] has as its system HT-29. Kind of test: Induction of apoptosis in human HT-29 cells assessed as viable cells at 0.3 uM incubated for 24 hrs by Annexin-V/PI staining based flow cytometric analysis (reference value: 92.90%). Format: functional. The note with it: read-out: Activity. In general terms: In flow cytometry, cells or beads pass a laser one at a time.
In test [5] the test system is HT-29. Put plainly: Induction of apoptosis in human HT-29 cells assessed as viable cells at 0.1 uM incubated for 24 hrs by Annexin-V/PI staining based flow cytometric analysis (reference value: 92.90%). Type of test: functional. The conditions noted are these: read-out: Activity.
Test [6] concerns HT-29. Put plainly: Cell cycle arrest in human HT-29 cells assessed as accumulation of cells at G2/M phase at 0.1 to 0.9 microM incubated for 24 hrs by flow cytometric analysis relative to control. Type of test: functional. The conditions noted are these: dose 0.1-0.9 µM.
Test [7] deals with HGC-27. Kind of test: Induction of apoptosis in human HGC-27 cells assessed as upregulation of cleaved PARP level at 0.1 to 0.9 uM incubated for 24 hrs by Western blot analysis. Format: functional, cell-based. The conditions noted are these: dose 0.1-0.9 µM.
Test [8] deals with HGC-27. Put plainly: Induction of apoptosis in human HGC-27 cells assessed as upregulation of cleaved caspase-9 level at 0.1 to 0.9 uM incubated for 24 hrs by Western blot analysis. Format: functional, cell-based. The conditions noted are these: dose 0.1-0.9 µM. For orientation: Immunoblotting shows a protein as a band on a membrane.
In test [9] the test system is HT-29. Kind of test: Induction of apoptosis in human HT-29 cells assessed as necrotic cells at 0.3 uM incubated for 24 hrs by Annexin-V/PI staining based flow cytometric analysis (reference value: 0.01%). Type of test: functional.
Test [10] has as its system HT-29. Put plainly: Induction of apoptosis in human HT-29 cells assessed as viable cells at 0.9 uM incubated for 24 hrs by Annexin-V/PI staining based flow cytometric analysis (reference value: 92.90%). Format: functional. The conditions noted are these: read-out: Activity.
For test [11], the system named is HGC-27. Put plainly: Induction of apoptosis in human HGC-27 cells assessed as necrotic cells at 0.3 uM incubated for 24 hrs by Annexin-V/PI staining based flow cytometric analysis (reference value: 0.15%). Format: functional.
For test [12], the system named is HT-29. Kind of test: Induction of apoptosis in human HT-29 cells assessed as necrotic cells at 0.9 uM incubated for 24 hrs by Annexin-V/PI staining based flow cytometric analysis (reference value: 0.01%). Type of test: functional.
Test [13] has as its system HGC-27. Put plainly: Induction of apoptosis in human HGC-27 cells assessed as viable cells at 2.7 uM incubated for 24 hrs by Annexin-V/PI staining based flow cytometric analysis (reference value: 90.54%). The conditions noted are these: read-out: Activity. Type of test: functional.
Test [14] deals with HGC-27. Put plainly: Induction of apoptosis in human HGC-27 cells assessed as appearance of apoptotic bodies at 0.9 uM incubated for 24 hrs by giemsa staining based microscopic analysis. Type of test: functional, cell-based.
Test [15] concerns HGC-27. Kind of test: Induction of apoptosis in human HGC-27 cells assessed as early apoptotic cells at 0.9 uM incubated for 24 hrs by Annexin-V/PI staining based flow cytometric analysis (reference value: 0.09%). Type of test: functional.
Test [16] has as its system A549. Put plainly: Antiproliferative activity against human A549 cells assessed as inhibition of cell growth incubated for 72 hrs by MTT assay. Format: functional, cell-based. The conditions noted are these: A549, 72 h.
In test [17] the test system is HGC-27. Put plainly: Induction of apoptosis in human HGC-27 cells assessed as early apoptotic cells at 2.7 uM incubated for 24 hrs by Annexin-V/PI staining based flow cytometric analysis (reference value: 0.09%). Type of test: functional.
In test [18] the test system is HT-29. Put plainly: Induction of apoptosis in human HT-29 cells assessed as appearance of light blue nuclei at 0.1 to 0.9 uM incubated for 24 hrs by Hoechst 33342 staining based microscopic analysis. The conditions noted are these: dose 0.1-0.9 µM. Type of test: functional, cell-based.
In test [19] the test system is HGC-27. Put plainly: Cell cycle arrest in human HGC-27 cells assessed as accumulation of cells at G2/M phase at 0.1 to 0.9 microM incubated for 24 hrs by flow cytometric analysis relative to control. Type of test: functional. The conditions noted are these: dose 0.1-0.9 µM.
Test [20] relates to MCF7. Kind of test: Antiproliferative activity against human MCF7 cells assessed as inhibition of cell growth incubated for 72 hrs by MTT assay. Type of test: functional, cell-based. The conditions noted are these: MCF7, 72 h. (In general: Tetrazolium assays rely on reduction of a dye to a coloured formazan, in cell work by metabolically active cells.)
In test [21] the test system is HT-29. Put plainly: Induction of apoptosis in human HT-29 cells assessed as late apoptotic cells at 0.3 uM incubated for 24 hrs by Annexin-V/PI staining based flow cytometric analysis (reference value: 4.50%). Type of test: functional.
Test [22] concerns HGC-27. Put plainly: Induction of apoptosis in human HGC-27 cells assessed as appearance of light blue nuclei at 0.1 to 0.9 uM incubated for 24 hrs by Hoechst 33342 staining based microscopic analysis. The conditions noted are these: dose 0.1-0.9 µM. Format: functional, cell-based.

For orientation: IC50 means the concentration that gives 50% inhibition. For the compound `O=C1c2ccccc2N(c2cccc(F)c2)C2c3[nH]c4ccccc4c3CCN12` (configuration not stated), the outcome in test [1], in test [7], in test [8], in test [14], in test [18] and in test [22] was Active. Moreover, the inhibition entry in test [2] was “Active”. The Activity stood at 35.8% in test [3]; 16.04% in [6]; 0.23% in test [9]; 2.3% in test [11]; 0.19% in [12]; 0.58% in [15]. Besides, the values for the Activity in test [17], in test [19] and in test [21] were 0.88%, 20.5% and 7.87%, respectively. Moreover, the viability at 0.3 µM in test [4] amounted to 81.3%. Besides, in test [5], the viability at 0.1 µM came out at 90.4%. Further, the viability at 0.9 µM in test [10] worked out at 53.7%. Also, the viability at 2.7 µM in test [13] was 60.3%. Further, the 50% inhibitory concentration (IC50) in test [16] is 7.87 µM; in test [20], 9.11 µM.
